From patent publication US10246457B2, “Indazole and azaindazole Btk inhibitors” (MERCK SHARP & DOHME CORP., priority 2015, dated 2019)

Columns and labels:
[1] = biological target: 25P Btk enzyme (un-activated full-length Btk) (Homo sapiens (Human), UniProt Q06187); experiment: 25P Btk Enzyme Activity Assay (LANCE TR-FRET); assay type: biochemical; conditions: un-activated Btk (25P), 25 μM ATP, 60 minute compound and enzyme incubation; read-out: Btk binding IC50 (nM) with 25 P
Protocol: Preparation of Un-Activated Btk Enzyme (25P Btk)
Un-activated full-length Btk recombinant protein was purified from baculovirus-transfected Sf21 cells. […] This protein represents the un-activated state of the Btk enzyme.
25P Btk Enzyme Activity Assay
Btk enzymatic activity was determined with the LANCE (Lanthanide Chelate Excite) TR-FRET (lime-resolved fluorescence resonance energy transfer) assay. […] To each well of a black non-binding surface Corning 384-well microplate (Corning Catalog #3820), 5 nL of compound (2000 fold dilution in final assay volume of 10 μL) was dispensed, followed by the addition of 7.5 μL of 1× kinase buffer (50 mM Hepes 7.5, 10 mM MgCl2, 0.01% Brij-35, 1 mM EGTA, 0.05% BSA and 1 mM DTT) containing 26.67 pg/μL (266.7 pM) of 25P Btk enzyme (recombinant protein from baculovirus-transfected Sf9 cells: full-length Btk; MW=79378 Da). Following a 60 minute compound and enzyme incubation, each reaction was initiated by the addition of 2.5 μL 1× kinase buffer containing 8 μM biotinylated “A5” peptide (Biotin-EQEDEPEGDYFEWLE-NH2), and 100 μM ATP. The final reaction in each well of 10 consists of 200 pM 25P Btk, 2 μM biotin-A5-peptide, and 25 μM ATP. Phosphorylation reactions were allowed to proceed for 120 minutes. Reactions were immediately quenched by the addition of 20 uL of 1× quench buffer (15 mM EDTA, 25 mM Hepes 7.3, and 0.1% Triton X-100) containing detection reagents (0.626 nM of LANCE-Eu-W1024-anti-phosphoTyrosine antibody, PerkinElmer and 86.8 nM of Streptavidin-conjugated Dylight 650, Dyomics/ThermoFisher Scientific). After 60 minutes incubation with detection reagents, reaction plates were read on a PerkinElmer EnVision plate reader using standard TR-FRET protocol. Briefly, excitation of donor molecules (Eu-chelate:anti-phospho-antibody) with a laser light source at 337 nm produces energy that can be transferred to Dylight-650 acceptor molecules if this donor:acceptor pair is within close proximity. Fluorescence intensity at both 665 nm (acceptor) and 615 nm (donor) are measured and a TR-FRET ratio calculated for each well (acceptor intensity/donor intensity). IC50 values were determined by 4 parameter robust fit of TR-FRET ratio values vs. (Log10) compound concentrations.

[2] = biological target: 100P Btk enzyme (activated full-length Btk) (Homo sapiens (Human), UniProt Q06187); experiment: 100P Btk Enzyme Activity Assay (LANCE TR-FRET); assay type: biochemical; conditions: activated Btk (100P), 25 μM ATP, 60 minute compound and enzyme incubation; top concentration 1000 nM; read-out: Btk binding IC50 (nM) with 100 P
Chain of 100P Btk enzyme (activated full-length Btk) (Q06187 whole entry): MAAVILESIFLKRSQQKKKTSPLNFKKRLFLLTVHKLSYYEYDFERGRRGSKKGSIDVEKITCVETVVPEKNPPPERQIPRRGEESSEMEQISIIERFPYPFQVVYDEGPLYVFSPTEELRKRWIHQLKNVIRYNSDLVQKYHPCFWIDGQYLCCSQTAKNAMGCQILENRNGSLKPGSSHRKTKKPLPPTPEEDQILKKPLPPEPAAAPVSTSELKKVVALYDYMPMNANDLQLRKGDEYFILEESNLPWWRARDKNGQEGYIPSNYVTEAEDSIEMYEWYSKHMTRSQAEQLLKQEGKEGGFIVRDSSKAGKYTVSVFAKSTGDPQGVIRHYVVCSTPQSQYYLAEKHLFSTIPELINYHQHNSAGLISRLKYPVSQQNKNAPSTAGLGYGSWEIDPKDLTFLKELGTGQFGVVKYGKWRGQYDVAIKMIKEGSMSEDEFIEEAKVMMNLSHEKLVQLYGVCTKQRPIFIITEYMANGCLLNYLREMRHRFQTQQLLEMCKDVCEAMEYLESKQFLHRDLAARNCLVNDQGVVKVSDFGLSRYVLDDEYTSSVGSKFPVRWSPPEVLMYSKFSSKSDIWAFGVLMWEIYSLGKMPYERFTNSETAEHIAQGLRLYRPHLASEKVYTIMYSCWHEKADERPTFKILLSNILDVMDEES
Protocol: Activated full-length Btk recombinant enzyme was expressed and purified in the same manner as the […] enzyme, except an auto-phosphorylation step was added to the purification scheme. […] This protein represents the activated state of the Btk enzyme. […] Btk Enzyme Activity Assay Btk enzymatic activity was determined with the LANCE (Lanthanide Chelate Excite) TR-FRET (lime-resolved fluorescence resonance energy transfer) assay. […] MW=79378 Da). […] Phosphorylation reactions were allowed to proceed for 45 minutes. […] After 60 minutes incubation with detection reagents, reaction plates were read on a PerkinElmer EnVision plate reader using standard TR-FRET protocol. Briefly, excitation of donor molecules (Eu-chelate:anti-phospho-antibody) with a laser light source at 337 nm produces energy that can be transferred to Dylight-650 acceptor molecules if this donor:acceptor pair is within close proximity. Fluorescence intensity at both 665 nm (acceptor) and 615 nm (donor) are measured and a TR-FRET ratio calculated for each well (acceptor intensity/donor intensity). […] (Log10) compound concentrations.

Chain of 25P Btk enzyme (un-activated full-length Btk) (Q06187 whole entry): as above

| IC50 [1] | IC50 [2] | Compound |
| --- | --- | --- |
| 0.18 nM | 20 nM | CC(C)(C)c1cc(F)c2c(=O)n(-c3cccc(-c4cc(-c5cnn(CC(=O)O)c5)c5[nH]nc(N)c5c4)c3CO)ncc2c1 [Example 23, 2-(4-(3-amino-5-(3-(6-(tert-butyl)-8-fluoro-1-oxophthalazin-2(1H)-yl)-2-(hydroxymethyl)phenyl)-1H-indazol-7-yl)-1H-pyrazol-1-yl)acetic acid] |
| 0.28 nM | 31.5 nM | CC(C)(C)c1cc(F)c2c(=O)n(-c3cccc(-c4cc(-c5cnn(C(C)(C)C(=O)O)c5)c5[nH]nc(N)c5c4)c3CO)ncc2c1 [Example 24, 2-(4-(3-amino-5-(3-(6-(tert-butyl)-8-fluoro-1-oxophthalazin-2(1H)-yl)-2-(hydroxymethyl)phenyl)-1H-indazol-7-yl)-1H-pyrazol-1-yl)-2-methylpropanoic acid] |
| 0.18 nM | 2.6 nM | CC(C)(C)c1cc(F)c2c(=O)n(-c3cccc(-c4cc(-c5cnn(C6CCOCC6)c5)c5[nH]nc(N)c5c4)c3CO)ncc2c1 [Example 25, 2-(3-(3-amino-7-(1-(tetrahydro-2H-pyran-4-yl)-1H-pyrazol-4-yl)-1H-indazol-5-yl)-2-(hydroxymethyl)phenyl)-6-(tert-butyl)-8-fluorophthalazin-1(2H)-one] |
| 0.096 nM | 5.3 nM | COCCn1cc(-c2cc(-c3cccc(-n4ncc5cc(C(C)(C)C)cc(F)c5c4=O)c3CO)cc3c(N)n[nH]c23)cn1 [Example 26, 2-(3-(3-amino-7-(1-(2-methoxyethyl)-1H-pyrazol-4-yl)-1H-indazol-5-yl)-2-(hydroxymethyl)phenyl)-6-(tert-butyl)-8-fluorophthalazin-1(2H)-one] |
| 0.43 nM | 69.5 nM | Cc1nn(C)cc1-c1cc(-c2cccc(-n3ncc4cc(C(C)(C)C)cc(F)c4c3=O)c2CO)cc2c(N)n[nH]c12 [Example 27, 2-(3-(3-amino-7-(1,3-dimethyl-1H-pyrazol-4-yl)-1H-indazol-5-yl)-2-(hydroxymethyl)phenyl)-6-(tert-butyl)-8-fluorophthalazin-1(2H)-one] |
| 1.7 nM | 360 nM | CC(C)(C)c1cc(F)c2c(=O)n(-c3cccc(-c4cc(-c5cnn6c5CCCC6)c5[nH]nc(N)c5c4)c3CO)ncc2c1 [Example 28, 2-(3-(3-amino-7-(4,5,6,7-tetrahydropyrazolo[1,5-a]pyridin-3-yl)-1H-indazol-5-yl)-2-(hydroxymethyl)phenyl)-6-(tert-butyl)-8-fluorophthalazin-1(2H)-one] |
